In US4147861A, “1N-(α-Hydroxy-ω-aminoalkanoyl)- 6'N-methyl-3',4'-dideoxykanamycin B and the production thereof” (Zaidan Hojin Biseibutsu Kagaku Kenkyu Kai, priority 1977, dated 1979):
Values after ≈ are worked out from the molar mass of the structure shown.

Columns and labels:
Staphylococcus aureus = experiment: Minimum inhibitory concentration, serial dilution method on nutrient agar; format: cell-based; conditions: 37° C., 18 hours, read-out: Minimum Inhibitory Concentrations
[1] = test system: Staphylococcus aureus FDA 209P; experiment: as above; format: cell-based; conditions: FDA209P, 37° C., 18 hours, read-out: Minimum Inhibitory Concentrations
[2] = test system: Staphylococcus aureus Terajima; experiment: as above; format: cell-based; conditions: 37° C., 18 hours, read-out: Minimum Inhibitory Concentrations
Sarcina lutea PCI 1001 = experiment: as above; format: cell-based; conditions: Micrococcus luteus, PCI1001, 18 h, read-out: Minimum Inhibitory Concentrations
Bacillus anthracis = experiment: microbe, parasite or virus in culture; format: cell-based; conditions: 18 h, read-out: Minimum Inhibitory Concentrations
[3] = test system: Bacillus subtilis PCI 219; experiment: Minimum inhibitory concentration, serial dilution method on nutrient agar; format: cell-based; conditions: PCI219, 37° C., 18 hours, read-out: Minimum Inhibitory Concentrations
[4] = test system: Bacillus subtilis NRRL B-558; experiment: as above; format: cell-based; conditions: NRRLB558, 37° C., 18 hours, read-out: Minimum Inhibitory Concentrations
[5] = test system: Bacillus cereus ATCC 10702; experiment: as above; format: cell-based; conditions: ATCC10702; Bacillus cereus ATCC 10702; 37° C., 18 hours; read-out: Minimum Inhibitory Concentrations
[6] = test system: Corynebacterium bovis 1810; experiment: as above; format: cell-based; conditions: Corynebacterium bovis 1810; 37° C., 18 hours; read-out: Minimum Inhibitory Concentrations
[7] = test system: Mycobacterium smegmatis ATCC 607; experiment: as above; format: cell-based; conditions: Mycolicibacterium smegmatis, ATCC607, 37° C., 18 hours, read-out: Minimum Inhibitory Concentrations
[8] = test system: Shigella dysenteriae JS 11910; experiment: as above; format: cell-based; conditions: JS11910, 18 h, read-out: Minimum Inhibitory Concentrations
Salmonella typhosa T-63 = experiment: as above; format: cell-based; conditions: Salmonella enterica, 18 h, read-out: Minimum Inhibitory Concentrations
[9] = test system: Salmonella enteritidis 1891; experiment: as above; format: cell-based; conditions: Salmonella enterica; Salmonella enteritidis 1891; 37° C., 18 hours; read-out: Minimum Inhibitory Concentrations
Proteus vulgaris OX 19 = experiment: as above; format: cell-based; conditions: OX19; Proteus vulgaris OX 19; 37° C., 18 hours; read-out: Minimum Inhibitory Concentrations
[10] = test system: Klebsiella pneumoniae PCT 602; experiment: as above; format: cell-based; conditions: PCT602; Klebsiella pneumoniae PCT 602; 37° C., 18 hours; read-out: Minimum Inhibitory Concentrations
Escherichia coli NIHJ = experiment: as above; format: cell-based; conditions: Escherichia coli NIHJ; 37° C., 18 hours; read-out: Minimum Inhibitory Concentrations
Escherichia coli K-12 = experiment: as above; format: cell-based; conditions: K12; Escherichia coli K-12; 37° C., 18 hours; read-out: Minimum Inhibitory Concentrations
Escherichia coli K-12 R5 = experiment: as above; format: cell-based; conditions: K12R5, 18 h, read-out: Minimum Inhibitory Concentrations
[11] = test system: Escherichia coli K-12 ML 1629; experiment: as above; format: cell-based; conditions: K12ML1629; Escherichia coli K-12 ML 1629; 37° C., 18 hours; read-out: Minimum Inhibitory Concentrations
[12] = test system: Escherichia coli K-12 ML 1410; experiment: as above; format: cell-based; conditions: K12ML1410; Escherichia coli K-12 ML 1410; 37° C., 18 hours; read-out: Minimum Inhibitory Concentrations
[13] = test system: Escherichia coli K-12 ML 1410 R81; experiment: as above; format: cell-based; conditions: 18 h, read-out: Minimum Inhibitory Concentrations
[14] = test system: Escherichia coli LA290 R55; experiment: as above; format: cell-based; conditions: LA290R55, 18 h, read-out: Minimum Inhibitory Concentrations
[15] = test system: Escherichia coli LA290 R56; experiment: as above; format: cell-based; conditions: LA290R56, 18 h, read-out: Minimum Inhibitory Concentrations
[16] = test system: Escherichia coli LA290 R64; experiment: as above; format: cell-based; conditions: LA290R64, 18 h, read-out: Minimum Inhibitory Concentrations
Escherichia coli W677 = experiment: as above; format: cell-based; conditions: Escherichia coli W677; 37° C., 18 hours; read-out: Minimum Inhibitory Concentrations
[17] = test system: Escherichia coli JR66/W677; experiment: as above; format: cell-based; conditions: Escherichia coli, JR66/W677, 18 h, read-out: Minimum Inhibitory Concentrations
[18] = test system: Escherichia coli K-12 ML 1630; experiment: as above; format: cell-based; conditions: K12ML1630, 37° C., 18 hours, read-out: Minimum Inhibitory Concentrations
Description: (§1) The minimum inhibitory concentrations (mcg./ml.) of 1N-(DL-isoseryl)-6'N-methyl-3',4'-dideoxykanamycin B (abbreviated as DL-IS-MDKB); 1N-(L-isoseryl)-6'N-methyl-3',4'-dideoxykanamycin B (abbreviated as L-IS-MDKB); 1N-(L-4-amino-[…])-6'N-methyl-3',4'-dideoxykanamycin B (abbreviated as AHB-MDKB); and 1N-(L-5-amino-2-hydroxyvaleryl)-6'N-methyl-3',4'-dideoxykanamycin B (abbreviated as AHV-MDBK) against various organisms were determined according to serial dilution method using nutrient agar medium at 37° C., the readings being made after 18 hours incubation. For the comparison purpose, the minimum inhibitory concentrations (mcg./ml.) of 1 N-(L-4-amino-2-hydroxybutyryl)-kanamycin A (abbreviated as AHB-KMA) and 1N-([…])-kanamycin B (abbreviated as AHB-KMB) which are known from U.S. Pat. No. 3,781,268 were also determined by the same manner as stated above.

[19] = test system: Klebsiella pneumoniae 22 No. 3038; experiment: as above; format: cell-based; conditions: 37° C., 18 hours, read-out: Minimum Inhibitory Concentrations
Description: as §1

[20] = test system: Pseudomonas aeruginosa A3; experiment: as above; format: cell-based; conditions: 37° C., 18 hours, read-out: Minimum Inhibitory Concentrations
Description: as §1

[21] = test system: Shigella flexneri 4b JS 11811; experiment: as above; format: cell-based; conditions: 4BJS11811, 37° C., 18 hours, read-out: Minimum Inhibitory Concentrations
Description: as §1

Shigella sonnei JS 11746 = experiment: as above; format: cell-based; conditions: JS11746, 37° C., 18 hours, read-out: Minimum Inhibitory Concentrations
Description: as §1

[22] = test system: Pseudomonas aeruginosa No. 12; experiment: as above; format: cell-based; conditions: Pseudomonas aeruginosa, NO.12, 18 h, read-out: Minimum Inhibitory Concentrations
[23] = test system: Pseudomonas aeruginosa TI-13; experiment: as above; format: cell-based; conditions: Pseudomonas aeruginosa, TI13, 18 h, read-out: Minimum Inhibitory Concentrations
[24] = test system: Pseudomonas aeruginosa GN315; experiment: as above; format: cell-based; conditions: Pseudomonas aeruginosa GN315; 37° C., 18 hours; read-out: Minimum Inhibitory Concentrations
[25] = test system: Pseudomonas aeruginosa 99; experiment: as above; format: cell-based; conditions: 37° C., 18 hours, read-out: Minimum Inhibitory Concentrations
[26] = test system: kanamycin-resistant bacteria; conditions: prior art statement; cited from earlier work

## NCC[C@H](O)C(=O)N[C@@H]1C[C@H](N)[C@@H](O[C@H]2O[C@H](CN)[C@@H](O)[C@H](O)[C@H]2O)[C@H](O)[C@H]1O[C@H]1O[C@H](CO)[C@@H](O)[C@H](N)[C@H]1O [AHB-KMA, 1 N-(L-4-amino-2-hydroxybutyryl)-kanamycin A, reference compound]
Staphylococcus aureus
  MIC: < 0.2 µg/mL
[1]
  MIC: 0.39 µg/mL (≈ 0.666 µM)
[2]
  MIC: < 0.2 µg/mL
Sarcina lutea PCI 1001
  MIC: 3.13 µg/mL (≈ 5.34 µM)
Bacillus anthracis
  MIC: < 0.2 µg/mL
[3]
  MIC: < 0.2 µg/mL
[4]
  MIC: < 0.2 µg/mL
[5]
  MIC: 0.78 µg/mL (≈ 1.33 µM)
[6]
  MIC: 0.78 µg/mL (≈ 1.33 µM)
[7]
  MIC: < 0.2 µg/mL
[8]
  MIC: 3.13 µg/mL (≈ 5.34 µM)
Salmonella typhosa T-63
  MIC: 0.39 µg/mL (≈ 0.666 µM)
[9]
  MIC: 0.78 µg/mL (≈ 1.33 µM)
Proteus vulgaris OX 19
  MIC: 0.78 µg/mL (≈ 1.33 µM)
[10]
  MIC: 0.39 µg/mL (≈ 0.666 µM)
Escherichia coli NIHJ
  MIC: 0.78 µg/mL (≈ 1.33 µM)
Escherichia coli K-12
  MIC: 0.78 µg/mL (≈ 1.33 µM)
Escherichia coli K-12 R5
  MIC: 0.39 µg/mL (≈ 0.666 µM)
[11]
  MIC: 0.78 µg/mL (≈ 1.33 µM)
[12]
  MIC: 0.78 µg/mL (≈ 1.33 µM)
[13]
  MIC: 1.56 µg/mL (≈ 2.66 µM)
[14]
  MIC: 0.78 µg/mL (≈ 1.33 µM)
[15]
  MIC: 0.39 µg/mL (≈ 0.666 µM)
[16]
  MIC: 0.39 µg/mL (≈ 0.666 µM)
Escherichia coli W677
  MIC: < 0.2 µg/mL
[17]
  MIC: 1.56 µg/mL (≈ 2.66 µM)
[18]
  MIC: 0.78 µg/mL (≈ 1.33 µM)
[19]
  MIC: 1.56 µg/mL (≈ 2.66 µM)
[20]
  MIC: 3.13 µg/mL (≈ 5.34 µM)
[21]
  MIC: 3.13 µg/mL (≈ 5.34 µM)
Shigella sonnei JS 11746
  MIC: 1.56 µg/mL (≈ 2.66 µM)
[22]
  MIC: 3.13 µg/mL (≈ 5.34 µM)
[23]
  MIC: 3.13 µg/mL (≈ 5.34 µM)
[24]
  MIC: 100 µg/mL (≈ 171 µM)
[25]
  MIC: 6.25 µg/mL (≈ 10.7 µM)
[26]
  activity against kanamycin-resistant bacteria: active against a large number of kanamycin-resistant bacteria
